Source: US4325974A, “β, γ-Dihydropolyprenyl alcohol and hypotensive pharmaceutical composition containing same” (Eisai Co., Ltd., priority 1978, dated 1982)

How the values were obtained:
[1] = system: spontaneously hypertensive rats (SHR) of Okamoto and Aoki; experiment: Hypotensive effect on spontaneously hypertensive rats (blood pressure, tail-cuff method; heart rate, tachometer); type: in vivo, rat (SHR of Okamoto and Aoki); conditions: 10 mg/kg oral
Protocol: I. The hypotensive effect of the formula (I) compound, according to the invention, on spontaneously hypertensive rats (hereinafter referred to as SHR) of Okamoto and Aoki:
The hypotensive effects of the test compounds on SHR of Okamoto and Aoki of about 35 weeks age were determined. The systolic blood pressure of the SHR was around 230 mmHg.
The test compounds were given to the SHR orally in the form of a suspension in aqueous acacia solution. The SHR were divided into a test compound group to which a test compound was administered and a control group to which only an aqueous acacia solution (free of test compound) was administered. Each group comprised three SHR.
The blood pressure of the SHR was measured with a Shimazu continuous tonometer SCS-301 (a product of Shimazu Seisakusho Co., Ltd.). Tail artery pressure was indirectly measured by a tail-cuff method.
The blood pressure was measured immediately before the administration and at 2, 4, 6 and 24 hours after the administration to determine the change in blood pressure with the passing of time.
The heart rate was determined by recording the pulse rate at the tail of the SHR with a tachometer of said tonometer […]. Test Compound and Dose
10 mg/kg (body weight of SHR)

[2] = system: hepatic disease (hepatitis), induced by intraabdominal administration of D-galactosamine; experiment: Effect on hepatic disease (hepatitis) induced by intraabdominal administration of D-galactosamine; type: in vivo; conditions: SD rats
Protocol: II. The effects of the formula (I) compound, according to the invention, on hepatic disease (hepatitis), induced by intraabdominal administration of D-galactosamine.
SD rats weighing about 250 g were used as test animals. D-Galactosamine hydrochloride (250 mg/kg each administration) and the test compound (50 mg/kg each administration) were administered intraabdominally to the rats on the schedule of experiments set forth below. After completion of the administration, blood was drawn from the test animals. The GPT value and alkali phosphatase value of the blood, which are indexes of the hepatic disease, were determined.
The test compound was used in the form of a suspension in 5% aqueous acacia solution. D-Galactosamine hydrochloride was used in the form of an aqueous solution thereof in distilled water, which solution was adjusted to pH 7 with potassium hydroxide. The rats were divided into three groups, i.e., a test compound group (comprising 9 rats) to which the test compound was administered, a control group (comprising 14 rats) to which 5% aqueous acacia solution free of the test compound was administered and a normal group (comprising 9 rats) to which neither the test compound nor D-galactosamine hydrochloride was administered. [drawing 9]

In the case of `CC(C)=CCCC(C)=CCCC(C)=CCCC(C)=CCCC(C)=CCCC(C)=CCCC(C)=CCCC(C)=CCCC(C)=CCCC(C)CCO` (centres unmarked) [test compound, 3,7, 11, 15, 19, 23, 27, 31, 35, 39-Decamethyl-6, 10, 14, 18, 22, 26, 30, 34, 38-tetracontanonaene-1-ol], the “blood pressure two hours after the administration” value ([1]; 2 h, before administration 227±7 mmHg) is reported as 207±9 mmHg, the “blood pressure six hours after the administration” value ([1]; 6 h, before administration 227±7 mmHg, control 232±7 mmHg at 6 h) is reported as 202±12 mmHg and the “blood pressure 24 hours after the administration” value ([1]; 24 h, before administration 227±7 mmHg) is reported as 212±9 mmHg. For the same compound, the “effect on the heart rate” value ([1]; result in words) was “No effect on the heart rate was observed”, the hypotensive effect ([1]; result in words) was “clear, long-lasting hypotensive effect” and the “effect on hepatic disease induced by D-galactosamine hydrochloride” value ([2]; 50 mg/kg each intraabdominal, result in words) was “ameliorated or prevented”. For the same compound, the Alkali phosphatase value ([2]; test compound 50 mg/kg each and D-galactosamine hydrochloride 250 mg/kg each, intraabdominal, control 70.9 ± 3.9, normal 32.3 ± 2.5) was 63.7 ± 4.3 KA-U and the “GPT Value” ([2]; test compound 50 mg/kg each and D-galactosamine hydrochloride 250 mg/kg each, intraabdominal, control 1041.4 ± 200.8, normal 46.5 ± 4.9) was 523.3 ± 111.7 Carmen unit.
